Entries after “also recorded” stand apart in the source; their conditions may differ.
Tests used:
[1] = system: spinal neurons, colorectal distention (CRD); details: microinjection into the RVM (Zhuo et al.); cited from earlier work
[2] = system: referred visceral hypersensitivity induced by pancreatic inflammation; details: microinjection into the RVM (Vera-Portocarrero et al. 2006); cited from earlier work
[3] = system: rats with experimental pancreatitis (DBTC), referred abdominal hypersensitivity; assay: experimental pancreatitis model (IV DBTC): referred abdominal hypersensitivity, withdrawals to von Frey filament; type: in vivo, Sprague Dawley rats; details: DBTC rats; for effect of concurrent RVM antagonist on the effect of RVM sumatriptan: sumatriptan 10 μg RVM; for effect of concurrent RVM antagonist on the effect of RVM sumatriptan / effect of RVM antagonist on the effect of systemic sumatriptan: antagonist 3 μg RVM
Description: (§1) Adult male Sprague Dawley rats (Harlan, Indianapolis, Ind.), weighing 150-200 g, were maintained in a climate-controlled room with ad lib food and water on a 12 hour/12 hour light/dark cycle (lights on at 07:00 hours). All procedures followed the policies of the International Association for the Study of Pain and the NIH guidelines for the handling and use of laboratory animals. Studies were approved by the University of Arizona IACUC.
(§2) Dibutyltin dichloride (DBTC) was obtained from Sigma-Aldrich (Milwaukee, Wis.) and dissolved in 100% ethanol to a concentration of 8 mg/kg (Sparmann et al., Gastroenterology. 112:1664-1672 (1997))). Sumatriptan succinate was obtained from Toronto Research Chemicals (ON, Canada) and dissolved in saline to 1, 3, and 10 μg for RVM microinjections and 100, 200, and 300 μg/kg for systemic injections (Kayser et al., Br J Pharmacol. 137:1287-1297 (2002)). The 5HT1B antagonist isamoltane and the 5HT1D antagonist BRL15722 were obtained from Tocris (Elllisville, Mo.). Isamoltane was dissolved in saline to a concentration of 3 μg for RVM microinjection and to a concentration of 4 mg/kg (Ottani et al., Eur J Pharmacol. 497:181-186 (2004)) for system application. BRL15722 was dissolved in 10% DMSO to a concentration of 3 μg for RVM microinjection and to a concentration of 0.3 mg/kg (Ottani et al., Eur J Pharmacol. 497:181-186 (2004)) for systemic application.
For the experiments involving microinjection of drugs into the RVM, rats underwent surgeries to implant RVM cannulae. After five days of recovery, rats received either intravenous injection of DBTC to induce pancreatitis, or intracolonic injection of sodium butyrate to induce colonic hypersensitivity. Animals were monitored for development of visceral hypersensitivity on the subsequent days. On day six after either induction of pancreatitis or colonic hypersensitivity, animals underwent baseline behavioral measurements. […] For experiments investigating the effects of serotonin antagonists, the drugs were microinjected concurrently with injection of sumatriptan and animals were monitored for the subsequent two h. Separate groups of animals were microinjected with the antagonists alone to control for possible effects of the drugs by themselves.
For the experiments involving systemic drug administration, rats received intravenous injection of DBTC to induce pancreatitis or intracolonic injection of sodium butyrate to induce colonic hypersensitivity. On day six after either induction of pancreatitis of colonic hypersensitivity, animals underwent baseline behavioral measurements. […] Separate groups of animals were injected with the antagonists alone. Additionally, separate groups of animals were injected with sumatriptan systemically and microinjected with the antagonists in the RVM to determine if the RVM is a site of action for systemically applied sumatriptan. The microinjection of antagonists into the RVM was done immediately following the systemic injection of sumatriptan. All animals were tested for behavioral signs of hypersensitivity every 20 min for two h after the end of the injections.
Pancreatitis was produced by a tail vein injection of dibutyltin dichloride (DBTC, Aldrich, Milwaukee, Wis., 0.25 cc) dissolved in 100% ethanol at a dose of 8 mg/kg under isofluorane anesthesia (2-3 liters/min, 4.0%/vol until anesthetized, then 2.5%/vol throughout the procedure; Vera-Portocarrero et al., Gastroenterology. 130:2155-2164 (2006)). Control animals were injected with the vehicle solution only (100% ethanol, 0.25 mL).
Referred abdominal hypersensitivity in the pancreatitis model was quantified by measuring the number of withdrawal events evoked by application of a calibrated von Frey filament (determined by either abdominal withdrawal, licking of the abdominal area, or whole body withdrawal). Rats were placed inside Plexiglas boxes on an elevated fine fiberglass screen mesh and acclimated for 30 minutes before testing. […]

[4] = system: rats with experimental colonic hypersensitivity (butyrate), referred lumbar hypersensitivity; assay: colonic hypersensitivity model (intracolonic sodium butyrate): referred lumbar hypersensitivity, von Frey mechanical threshold; type: in vivo, Sprague Dawley rats; details: butyrate rats; for effect of concurrent RVM antagonist on the effect of RVM sumatriptan: sumatriptan 10 μg RVM; for effect of concurrent systemic (IP) antagonist on the effect of systemic sumatriptan: isamoltane 4 mg/kg IP or BRL15722 0.3 mg/kg IP
Description: as §1, §2
For the experiments involving microinjection of drugs into the RVM, rats underwent surgeries to implant RVM cannulae. After five days of recovery, rats received either intravenous injection of DBTC to induce pancreatitis, or intracolonic injection of sodium butyrate to induce colonic hypersensitivity. Animals were monitored for development of visceral hypersensitivity on the subsequent days. On day six after either induction of pancreatitis or colonic hypersensitivity, animals underwent baseline behavioral measurements. Sumatriptan was microinjected into the RVM at different doses (separate groups of rats for each dose) and animals were monitored behaviorally for two h after sumatriptan application in the RVM. For experiments investigating the effects of serotonin antagonists, the drugs were microinjected concurrently with injection of sumatriptan and animals were monitored for the subsequent two h. Separate groups of animals were microinjected with the antagonists alone to control for possible effects of the drugs by themselves.
For the experiments involving systemic drug administration, rats received intravenous injection of DBTC to induce pancreatitis or intracolonic injection of sodium butyrate to induce colonic hypersensitivity. On day six after either induction of pancreatitis of colonic hypersensitivity, animals underwent baseline behavioral measurements. Sumatriptan was injected intraperitoneally at different doses (separate groups of rats for each dose) and the animals were monitored behaviorally every 20 min for two h after injection. For experiments investigating the effects of serotonin antagonists, the drugs were injected intraperitoneally immediately following the injection of sumatriptan (separate groups for each respective antagonist). Separate groups of animals were injected with the antagonists alone. Additionally, separate groups of animals were injected with sumatriptan systemically and microinjected with the antagonists in the RVM to determine if the RVM is a site of action for systemically applied sumatriptan. The microinjection of antagonists into the RVM was done immediately following the systemic injection of sumatriptan. All animals were tested for behavioral signs of hypersensitivity every 20 min for two h after the end of the injections.
Colonic hypersensitivity was induced by enemas of a sodium butyrate solution ([…]) twice daily for 3 days (Bourdu et al., Gastroenterology. 128:1996-2008 (2005)). […]

[5] = sumatriptan 300 μg/kg IP, listed as BRL1 5722

SMILES | spontaneous activity and responses of spinal neurons to colorectal distention [1] | referred visceral hypersensitivity induced by pancreatic inflammation [2] | effect of concurrent RVM antagonist on the effect of RVM sumatriptan [3] | effect of concurrent RVM antagonist on the effect of RVM sumatriptan ([3]; listed as BRL1 5722) | effect of RVM antagonist on the effect of systemic sumatriptan ([3]; sumatriptan 300 μg/kg IP) | effect of RVM antagonist on the effect of systemic sumatriptan [3, 5] | effect of concurrent systemic (IP) antagonist on the effect of systemic sumatriptan ([3]; sumatriptan 300 μg/kg IP, isamoltane 4 mg/kg IP or BRL15722 0.3 mg/kg IP) | effect of concurrent RVM antagonist on the effect of RVM sumatriptan ([4]; antagonist 3 μg RVM) | effect of concurrent RVM antagonist on the effect of RVM sumatriptan ([4]; antagonist 3 μg RVM, listed as BRL1 5722) | effect of RVM antagonist on the effect of systemic sumatriptan ([4]; sumatriptan 300 μg/kg IP, antagonist 3 μg RVM) | effect of concurrent systemic (IP) antagonist on the effect of systemic sumatriptan ([4]; sumatriptan 300 μg/kg IP) | effect of concurrent systemic (IP) antagonist on the effect of systemic sumatriptan [4, 5]
CCN(CC)CC(=O)Nc1c(C)cccc1C [lidocaine] | reduced spontaneous activity and responses of spinal neurons to colorectal distention; also recorded: reduced spontaneous activity and responses of spinal neurons to CRD | attenuated referred visceral hypersensitivity |  |  |  |  |  |  |  |  |  | 
OC(CN1CCN(c2cccc(Cl)c2)CC1)C(c1ccccc1)c1ccccc1 (stereo not drawn) [BRL15722] |  |  | did not block the effect of RVM sumatriptan | did not have any effect | did not block the effect of sumatriptan | failed to antagonize the effects of systemic sumatriptan | reduced the effects of systemic sumatriptan; also recorded: blocked the effect of sumatriptan | did not block the effect of RVM sumatriptan | did not have any effect | failed to antagonize the effects of systemic sumatriptan; also recorded: did not block the effect of systemic sumatriptan | blocked the effect of systemic sumatriptan | reduced the effects of systemic sumatriptan

Reference: patent US20090163451A1, “METHODS FOR TREATING VISCERAL PAIN” (priority 2007, published 2009)
